This passage reports TGI results from PubChem BioAssay (NCI).

SMILES strings stand for the structures.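 Briefly, cells in 96-well plates were exposed to five compound concentrations for 48 h, and endpoints were estimated by linear interpolation. TGI marks complete inhibition of growth.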

The subject of one test is HT29 colon. In words: growth of human tumour cells (NCI), 48 h.
Take `O=P(O)(OCC(O)O)OCC(O)O`: the TGI was over 100 µM.
Same read-out and setting: then `CCOC(=O)CSc1ccnc(=O)[nH]1`, with over 100 µM; and `c1ccc(Nc2nnc(CSc3nc(-c4ccccc4)c(-c4ccccc4)[nH]3)s2)cc1`, with 30.6 µM.

A further test deals with RXF 393 renal. In words: growth of human tumour cells (NCI), 48 h.
`O=C1C/C(=C/c2ccc(/C=C3/CC(=O)N(c4cccc(Br)c4)C3=O)cc2)C(=O)N1c1cccc(Br)c1` came in with a TGI of 93.4 µM.
Regarding `CCOC(C[C@H](O)[C@H]1COC(=S)S1)OCC`, the TGI was over 100 µM.
Take `CCCCCCn1c(SCC)c2ccccc2c1-c1nc(F)nc(F)n1`: the TGI was over 100 µM.
Same read-out and setting: then `CC(=O)/C(=C\c1ccco1)C(=O)Nc1ccccc1`, with over 100 µM; and `NCC1(N2CCOCC2)C2CCCC21CO` (centres undefined), with over 100 µM; and `C=CCONC(=O)c1ccc(Cl)cc1`, with over 100 µM.
The same measure, in the same setting: under `O=C(CC1Sc2ccccc2NC1=O)Nc1cc(Cl)ccc1Cl` (centres undefined) stands over 100 µM.
Turning to `COc1cc(/C=C/C(=O)c2sc(-n3nc(-c4ccccc4)cc3-c3ccccc3)nc2C)ccc1O`, the TGI was over 100 µM.
Take `CC(C)=CCCC1(C)C=Cc2c(c(C)cc3c2[nH]c2cc(O)ccc23)O1` (centres undefined): the TGI was over 25 µM.
Same read-out and setting: then `COc1cc(NC(C)=O)c2[nH]c3c(C)cc(NC(C)=O)c(C)c3c2c1`, with over 100 µM.
With `COc1cc(/C=C\c2ccccn2)cc(OC)c1OC`, the TGI was over 100 µM.
As for `O=P(O)(OCC(O)O)OCC(O)O`, the TGI is over 100 µM.
On the same count and under the same terms, under `CCOC(=O)CSc1ccnc(=O)[nH]1` stands over 100 µM.

In the next test the test system is NCI-H522 lung. In words: growth of human tumour cells (NCI), 48 h.
With `O=C1C/C(=C/c2ccc(/C=C3/CC(=O)N(c4cccc(Br)c4)C3=O)cc2)C(=O)N1c1cccc(Br)c1`, the TGI was over 100 µM.
For the molecule `CCOC(C[C@H](O)[C@H]1COC(=S)S1)OCC`, the TGI is over 100 µM.
In turn, `CCCCCCn1c(SCC)c2ccccc2c1-c1nc(F)nc(F)n1` came in with a TGI of over 100 µM.
Molecule `CN(C(=O)C12C3C4C1C1C2C3C41I)C(C)(C)C` (centres undefined) came in with a TGI of over 100 µM.
In turn, `Cn1c(O)c(C(=O)Nc2cccs2)c(=O)[nH]c1=S` displayed a TGI of 27.6 µM.
Still for that read-out and setting: under `CC(=O)/C(=C\c1ccco1)C(=O)Nc1ccccc1` stands over 100 µM.
On the same count and under the same terms, then `NCC1(N2CCOCC2)C2CCCC21CO` (centres undefined), with over 100 µM; and `CC#COP(=O)(OCC)OCC`, with over 100 µM.
The same measure, in the same setting: then `C=CCONC(=O)c1ccc(Cl)cc1`, with over 100 µM; and `COc1cc(/C=C/C(=O)c2sc(-n3nc(-c4ccccc4)cc3-c3ccccc3)nc2C)ccc1O`, with over 100 µM; and `CC(C)=CCCC1(C)C=Cc2c(c(C)cc3c2[nH]c2cc(O)ccc23)O1` (centres undefined), with over 25 µM.
As for `COc1cc(NC(C)=O)c2[nH]c3c(C)cc(NC(C)=O)c(C)c3c2c1`, the TGI was over 100 µM.
Same read-out and setting: under `COc1cc(/C=C\c2ccccn2)cc(OC)c1OC` stands over 100 µM; under `O=P(O)(OCC(O)O)OCC(O)O`, over 100 µM.
With `CCOC(=O)CSc1ccnc(=O)[nH]1`, the TGI is over 100 µM.
`c1ccc(Nc2nnc(CSc3nc(-c4ccccc4)c(-c4ccccc4)[nH]3)s2)cc1` displayed a TGI of 34.9 µM.

A further test relates to SF-539 CNS. In words: growth of human tumour cells (NCI), 48 h.
`O=C1C/C(=C/c2ccc(/C=C3/CC(=O)N(c4cccc(Br)c4)C3=O)cc2)C(=O)N1c1cccc(Br)c1` displayed a TGI of over 100 µM.
On the same count and under the same terms, then `CCOC(C[C@H](O)[C@H]1COC(=S)S1)OCC`, with over 100 µM.
Molecule `O=C(c1ccc(Cl)cc1Cl)N(C(=O)N1CCC(c2ccccc2)CC1)c1ccccc1` came in with a TGI of over 100 µM.
`CCCCCCn1c(SCC)c2ccccc2c1-c1nc(F)nc(F)n1`: the TGI was over 100 µM.
The same measure, in the same setting: under `CN(C(=O)C12C3C4C1C1C2C3C41I)C(C)(C)C` (centres undefined) stands over 100 µM; under `Cn1c(O)c(C(=O)Nc2cccs2)c(=O)[nH]c1=S`, 30.3 µM.
As for `CC(=O)/C(=C\c1ccco1)C(=O)Nc1ccccc1`, the TGI was over 100 µM.
`NCC1(N2CCOCC2)C2CCCC21CO` (centres undefined) displayed a TGI of over 100 µM.
With `CC#COP(=O)(OCC)OCC`, the TGI is over 100 µM.
`C=CCONC(=O)c1ccc(Cl)cc1` returned a TGI of over 100 µM.
Still for that read-out and setting: then `O=C(CC1Sc2ccccc2NC1=O)Nc1cc(Cl)ccc1Cl` (centres undefined), with over 100 µM.
Same read-out and setting: under `COc1cc(/C=C/C(=O)c2sc(-n3nc(-c4ccccc4)cc3-c3ccccc3)nc2C)ccc1O` stands over 100 µM; under `O=C(CCn1[nH]c(=O)c(Cl)c(Cl)c1=O)NOCCCc1ccccc1`, over 100 µM.
Same read-out and setting: then `CC(C)=CCCC1(C)C=Cc2c(c(C)cc3c2[nH]c2cc(O)ccc23)O1` (centres undefined), with over 25 µM; and `COc1cc(NC(C)=O)c2[nH]c3c(C)cc(NC(C)=O)c(C)c3c2c1`, with over 100 µM.
Molecule `COc1cc(/C=C\c2ccccn2)cc(OC)c1OC` registered a TGI of over 100 µM.
Turning to `O=P(O)(OCC(O)O)OCC(O)O`, the TGI was over 100 µM.
In turn, `CCOC(=O)CSc1ccnc(=O)[nH]1` showed a TGI of over 100 µM.
On the same count and under the same terms, under `c1ccc(Nc2nnc(CSc3nc(-c4ccccc4)c(-c4ccccc4)[nH]3)s2)cc1` stands 43.6 µM.

For a further test, the system named is MCF7 breast. In words: growth of human tumour cells (NCI), 48 h.
In turn, `O=C(c1ccc(Cl)cc1Cl)N(C(=O)N1CCC(c2ccccc2)CC1)c1ccccc1` yielded a TGI of over 100 µM.

A further test relates to OVCAR-5 ovarian. In words: growth of human tumour cells (NCI), 48 h.
In turn, `O=C1C/C(=C/c2ccc(/C=C3/CC(=O)N(c4cccc(Br)c4)C3=O)cc2)C(=O)N1c1cccc(Br)c1` returned a TGI of over 100 µM.
For `O=C(c1ccc(Cl)cc1Cl)N(C(=O)N1CCC(c2ccccc2)CC1)c1ccccc1`, the TGI was over 100 µM.
For `CCCCCCn1c(SCC)c2ccccc2c1-c1nc(F)nc(F)n1`, the TGI is over 100 µM.
`CN(C(=O)C12C3C4C1C1C2C3C41I)C(C)(C)C` (centres undefined): the TGI was over 100 µM.
The same measure, in the same setting: then `Cn1c(O)c(C(=O)Nc2cccs2)c(=O)[nH]c1=S`, with 69.5 µM; and `NCC1(N2CCOCC2)C2CCCC21CO` (centres undefined), with over 100 µM; and `CC#COP(=O)(OCC)OCC`, with over 100 µM.
On to `C=CCONC(=O)c1ccc(Cl)cc1`, for which the TGI was over 100 µM.
Regarding `O=C(CC1Sc2ccccc2NC1=O)Nc1cc(Cl)ccc1Cl` (centres undefined), the TGI is over 100 µM.
Still for that read-out and setting: under `COc1cc(/C=C/C(=O)c2sc(-n3nc(-c4ccccc4)cc3-c3ccccc3)nc2C)ccc1O` stands over 100 µM; under `O=C(CCn1[nH]c(=O)c(Cl)c(Cl)c1=O)NOCCCc1ccccc1`, over 100 µM.
For the molecule `CC(C)=CCCC1(C)C=Cc2c(c(C)cc3c2[nH]c2cc(O)ccc23)O1` (centres undefined), the TGI was over 25 µM.
Still for that read-out and setting: under `COc1cc(/C=C\c2ccccn2)cc(OC)c1OC` stands over 100 µM; under `O=P(O)(OCC(O)O)OCC(O)O`, over 100 µM.
Still for that read-out and setting: under `CCOC(=O)CSc1ccnc(=O)[nH]1` stands over 100 µM; under `c1ccc(Nc2nnc(CSc3nc(-c4ccccc4)c(-c4ccccc4)[nH]3)s2)cc1`, 43.6 µM.

The next test relates to TK-10 renal. In words: growth of human tumour cells (NCI), 48 h.
On to `O=C1C/C(=C/c2ccc(/C=C3/CC(=O)N(c4cccc(Br)c4)C3=O)cc2)C(=O)N1c1cccc(Br)c1`, for which the TGI is over 100 µM.
